Source: patent US10154957B2, “Microneedle device having a peptide therapeutic agent and an amino acid and methods of making and using the same” (3M INNOVATIVE PROPERTIES COMPANY, priority 2011, dated 2018)

Assay: Percent purity of PTHrP analogue (10 mg/mL formulations) in coating on arrays stored at 25° C./60% RH or 5° C./ambient RH (HPLC)
Type: physicochemical
Experimental: The protein or polypeptide content in the formulation coated on the microneedle arrays was determined using an Agilent 1100 HPLC system (Agilent Technologies, Wilmington, Del.) equipped with a binary pump, well-plated thermostated autosampler, thermostated column compartment, and a diode array UV detector. A Zorbax 300SB-C8 column (Agilent Technologies, Wilmington, Del.) having a 5 μm particle size and 2.1×150 mm inner diameter was used for the separations. The column was maintained at 50° C. The mobile phase consisted of two eluents. Eluent A was 0.1% TFA (trifluoroacetic acid) in water and eluent B was 0.1% TFA in acetonitrile (Spectrum Chemical, New Brunswick, N.J.). A linear gradient from 80/20 to 50/50 (A/B) was applied over 30 minutes. The flow rate was 0.4 mL/minute and the UV detection wavelength was set at 214 nm. The total run time was 34 minutes and the sample injection volume was 15 μL.
A sample formulation containing 10 mg/mL of [Glu^22,25,Leu^23,28,31,Aib^29,Lys^26,30]hPTHrP(1-34)NH2 and 10 mg/mL of L-histidine monohydrochloride (His-HCl) in PBS was prepared. A control formulation was also prepared containing 10 mg/mL of [Glu^22,25,Leu^23,28,31,Aib^29,Lys^26,30]hPTHrP(1-34)NH2 in PBS. […] Microneedle arrays were coated with either the sample or the control formulation. The coating was applied by dropwise addition of 40 μL of the formulation to the portion of the array defined by the octagon shaped pattern of microneedles. The coated arrays (both sample and control formulation coated) were dried in an oven at 35° C. for 1.5 hours followed by 30° C. for 15 hours.
After drying, the coated arrays were placed in a storage chamber that was maintained at either 25° C./60% RH or 5° C./ambient RH. The [Glu^22,25,Leu^23,28,31,Aib^29,Lys^26,30]hPTHrP(1-34)NH2 content of the coated arrays was determined following storage in the chamber for 7 days, 14 days, 28 days, and 2 months. The initial [Glu^22,25,Leu^23,28,31,Aib^29,Lys^26,30]hPTHrP(1-34)NH2 content was also determined using freshly coated arrays (both sample and control formulation coated). The arrays used to determine initial content were stored in a refrigerator at about 4° C. and analyzed within one day of being prepared. At the designated time point, an array was taken from the chamber and washed with PBS (3.5 mL) to remove the coating from the array. An aliquot of the resulting wash solution was analyzed for [Glu^22,25,Leu^23,28,31,Aib^29,Lys^26,30]hPTHrP(1-34)NH2 content using the HPLC method described above. The results were quantified against an external standard of [Glu^22,25,Leu^23,28,31,Aib^29,Lys^26,30]hPTHrP(1-34)NH2. At each time point, the percent purity of [Glu^22,25,Leu^23,28,31,Aib^29,Lys^26,30]hPTHrP(1-34)NH2 in the coating was determined by measuring the peak area for [Glu^22,25,Leu^23,28,31,Aib^29,Lys^26,30]hPTHrP(1-34)NH2 in the selected coating and dividing it by the total peak area measured for all [Glu^22,25,Leu^23,28,31,Aib^29,Lys^26,30]hPTHrP(1-34)NH2 related peaks.
The same procedure as described in Example 10 was used with the exception that the sample formulation contained 10 mg/mL of L-arginine hydrochloride, instead of L-histidine monohydrochloride.

## [Glu^22,25,Leu^23,28,31,Aib^29,Lys^26,30]hPTHrP(1-34)NH2
Amino Acid L-Arginine (Arg-HCl 10 mg/mL), peptide in PBS, Storage Condition 5° C./ambient RH, 0 day
  Percent Purity of [Glu^22,25, Leu^23,28,31, Aib^29, Lys^26,30]hPTHrP(1-34)NH2: 99.0%
Amino Acid L-Arginine (Arg-HCl 10 mg/mL), peptide in PBS, Storage Condition 5° C./ambient RH, 2 months
  Percent Purity of [Glu^22,25, Leu^23,28,31, Aib^29, Lys^26,30]hPTHrP(1-34)NH2: 98.4%
Amino Acid L-Arginine (Arg-HCl 10 mg/mL), peptide in PBS, Storage Condition 5° C./ambient RH, 7 day
  Percent Purity of [Glu^22,25, Leu^23,28,31, Aib^29, Lys^26,30]hPTHrP(1-34)NH2: 98.8%
Amino Acid L-Arginine (Arg-HCl 10 mg/mL), peptide in PBS, Storage Condition 5° C./ambient RH, 14 day
  Percent Purity of [Glu^22,25, Leu^23,28,31, Aib^29, Lys^26,30]hPTHrP(1-34)NH2: 98.8%
Amino Acid L-Arginine (Arg-HCl 10 mg/mL), peptide in PBS, Storage Condition 5° C./ambient RH, 28 day
  Percent Purity of [Glu^22,25, Leu^23,28,31, Aib^29, Lys^26,30]hPTHrP(1-34)NH2: 98.8%
Amino Acid L-Arginine (Arg-HCl 10 mg/mL), peptide in PBS, Storage Condition 25° C./60% RH, 0 day
  Percent Purity of [Glu^22,25, Leu^23,28,31, Aib^29, Lys^26,30]hPTHrP(1-34)NH2: 99.0%
Amino Acid L-Arginine (Arg-HCl 10 mg/mL), peptide in PBS, Storage Condition 25° C./60% RH, 2 months
  Percent Purity of [Glu^22,25, Leu^23,28,31, Aib^29, Lys^26,30]hPTHrP(1-34)NH2: 97.8%
Amino Acid L-Arginine (Arg-HCl 10 mg/mL), peptide in PBS, Storage Condition 25° C./60% RH, 7 day
  Percent Purity of [Glu^22,25, Leu^23,28,31, Aib^29, Lys^26,30]hPTHrP(1-34)NH2: 98.8%
Amino Acid L-Arginine (Arg-HCl 10 mg/mL), peptide in PBS, Storage Condition 25° C./60% RH, 14 day
  Percent Purity of [Glu^22,25, Leu^23,28,31, Aib^29, Lys^26,30]hPTHrP(1-34)NH2: 98.6%
Amino Acid L-Arginine (Arg-HCl 10 mg/mL), peptide in PBS, Storage Condition 25° C./60% RH, 28 day
  Percent Purity of [Glu^22,25, Leu^23,28,31, Aib^29, Lys^26,30]hPTHrP(1-34)NH2: 98.7%
Amino Acid L-Histidine (His-HCl 10 mg/mL), peptide 10 mg/mL in PBS, Storage Condition 5° C./ambient RH, 2 months
  Percent Purity of [Glu^22,25, Leu^23,28,31, Aib^29, Lys^26,30]hPTHrP(1-34)NH2: 98.7%
Amino Acid L-Histidine (His-HCl 10 mg/mL), peptide 10 mg/mL in PBS, Storage Condition 5° C./ambient RH, Day 7
  Percent Purity of [Glu^22,25, Leu^23,28,31, Aib^29, Lys^26,30]hPTHrP(1-34)NH2: 98.9%
Amino Acid L-Histidine (His-HCl 10 mg/mL), peptide 10 mg/mL in PBS, Storage Condition 5° C./ambient RH, Day 14
  Percent Purity of [Glu^22,25, Leu^23,28,31, Aib^29, Lys^26,30]hPTHrP(1-34)NH2: 98.9%
Amino Acid L-Histidine (His-HCl 10 mg/mL), peptide 10 mg/mL in PBS, Storage Condition 5° C./ambient RH, Day 28
  Percent Purity of [Glu^22,25, Leu^23,28,31, Aib^29, Lys^26,30]hPTHrP(1-34)NH2: 98.9%
Amino Acid L-Histidine (His-HCl 10 mg/mL), peptide 10 mg/mL in PBS, Storage Condition 5° C./ambient RH, Initial
  Percent Purity of [Glu^22,25, Leu^23,28,31, Aib^29, Lys^26,30]hPTHrP(1-34)NH2: 99.0%
Amino Acid L-Histidine (His-HCl 10 mg/mL), peptide 10 mg/mL in PBS, Storage Condition 25° C./60% RH, 2 months
  Percent Purity of [Glu^22,25, Leu^23,28,31, Aib^29, Lys^26,30]hPTHrP(1-34)NH2: 98.6%
Amino Acid L-Histidine (His-HCl 10 mg/mL), peptide 10 mg/mL in PBS, Storage Condition 25° C./60% RH, Day 7
  Percent Purity of [Glu^22,25, Leu^23,28,31, Aib^29, Lys^26,30]hPTHrP(1-34)NH2: 98.9%
Amino Acid L-Histidine (His-HCl 10 mg/mL), peptide 10 mg/mL in PBS, Storage Condition 25° C./60% RH, Day 14
  Percent Purity of [Glu^22,25, Leu^23,28,31, Aib^29, Lys^26,30]hPTHrP(1-34)NH2: 98.8%
Amino Acid L-Histidine (His-HCl 10 mg/mL), peptide 10 mg/mL in PBS, Storage Condition 25° C./60% RH, Day 28
  Percent Purity of [Glu^22,25, Leu^23,28,31, Aib^29, Lys^26,30]hPTHrP(1-34)NH2: 98.9%
Amino Acid L-Histidine (His-HCl 10 mg/mL), peptide 10 mg/mL in PBS, Storage Condition 25° C./60% RH, Initial
  Percent Purity of [Glu^22,25, Leu^23,28,31, Aib^29, Lys^26,30]hPTHrP(1-34)NH2: 99.0%
Amino Acid None (control), peptide 10 mg/mL in PBS, Storage Condition 5° C./ambient RH, 2 months
  Percent Purity of [Glu^22,25, Leu^23,28,31, Aib^29, Lys^26,30]hPTHrP(1-34)NH2: 97.3%
Amino Acid None (control), peptide 10 mg/mL in PBS, Storage Condition 5° C./ambient RH, Day 7
  Percent Purity of [Glu^22,25, Leu^23,28,31, Aib^29, Lys^26,30]hPTHrP(1-34)NH2: 98.2%
Amino Acid None (control), peptide 10 mg/mL in PBS, Storage Condition 5° C./ambient RH, Day 14
  Percent Purity of [Glu^22,25, Leu^23,28,31, Aib^29, Lys^26,30]hPTHrP(1-34)NH2: 98.4%
Amino Acid None (control), peptide 10 mg/mL in PBS, Storage Condition 5° C./ambient RH, Day 28
  Percent Purity of [Glu^22,25, Leu^23,28,31, Aib^29, Lys^26,30]hPTHrP(1-34)NH2: 97.6%
Amino Acid None (control), peptide 10 mg/mL in PBS, Storage Condition 5° C./ambient RH, Initial
  Percent Purity of [Glu^22,25, Leu^23,28,31, Aib^29, Lys^26,30]hPTHrP(1-34)NH2: 98.7%
Amino Acid None (control), peptide 10 mg/mL in PBS, Storage Condition 25° C./60% RH, 2 months
  Percent Purity of [Glu^22,25, Leu^23,28,31, Aib^29, Lys^26,30]hPTHrP(1-34)NH2: 96.3%
Amino Acid None (control), peptide 10 mg/mL in PBS, Storage Condition 25° C./60% RH, Day 7
  Percent Purity of [Glu^22,25, Leu^23,28,31, Aib^29, Lys^26,30]hPTHrP(1-34)NH2: 98.0%
Amino Acid None (control), peptide 10 mg/mL in PBS, Storage Condition 25° C./60% RH, Day 14
  Percent Purity of [Glu^22,25, Leu^23,28,31, Aib^29, Lys^26,30]hPTHrP(1-34)NH2: 97.7%
Amino Acid None (control), peptide 10 mg/mL in PBS, Storage Condition 25° C./60% RH, Day 28
  Percent Purity of [Glu^22,25, Leu^23,28,31, Aib^29, Lys^26,30]hPTHrP(1-34)NH2: 97.5%
Amino Acid None (control), peptide 10 mg/mL in PBS, Storage Condition 25° C./60% RH, Initial
  Percent Purity of [Glu^22,25, Leu^23,28,31, Aib^29, Lys^26,30]hPTHrP(1-34)NH2: 98.7%
